Data from patent publication US11685761B2, “Cyclic di-nucleotide compounds as sting agonists” (Merck Sharp & Dohme Corp., priority 2017, dated 2023).
Read-outs that look alike come from different tables or passages of the source.

Tests used:
full-length HAQ STING = biological target: T1, full-length HAQ STING (Homo sapiens, UniProt Q86WV6, G230A/H232R/R293Q/R71H); assay: 3H-cGAMP filtration binding assay (HAQ STING); conditions: competition with tritiated cGAMP ligand; T. ni cell membranes overexpressing full-length HAQ STING
T1 construct: made in house; host or cells: Trichoplusia ni (Hi-Five) insect cells, baculovirus generated in Sf21; crude membranes
T1 sequence (Q86WV6 with tags, fused parts or gaps R71H/G230A/H232R/R293Q): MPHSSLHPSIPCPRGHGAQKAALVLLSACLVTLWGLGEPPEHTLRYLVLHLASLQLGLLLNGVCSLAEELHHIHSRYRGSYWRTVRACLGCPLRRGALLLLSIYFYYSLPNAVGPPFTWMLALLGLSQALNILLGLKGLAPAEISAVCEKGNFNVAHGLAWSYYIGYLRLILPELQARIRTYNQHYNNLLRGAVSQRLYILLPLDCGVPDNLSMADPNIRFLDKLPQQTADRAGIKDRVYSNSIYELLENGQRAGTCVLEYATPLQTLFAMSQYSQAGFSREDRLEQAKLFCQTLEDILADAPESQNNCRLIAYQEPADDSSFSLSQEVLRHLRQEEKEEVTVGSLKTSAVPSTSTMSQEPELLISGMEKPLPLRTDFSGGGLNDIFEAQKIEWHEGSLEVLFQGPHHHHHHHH
Source text: The ability of compounds to bind STING is quantified by the ability to compete with tritiated cGAMP ligand for human STING receptor membrane using a radioactive filter-binding assay. The binding assay employs STING receptor obtained from Hi-Five cell membranes overexpressing full-length HAQ STING prepared in-house and tritiated cGAMP ligand also purified in-house.
The ability of compounds to bind STING is quantified by their ability to compete with tritiated cGAMP ligand for human STING receptor membrane using a radioactive filter-binding assay. The binding assay employs STING receptor obtained from Trichoplusia ni cell membranes (T. ni; Expression Systems, cat #94-002F, www.expressionsystems.com) overexpressing full-length HAQ STING and tritiated cGAMP ligand.
The basic HAQ STING filtration assay protocol is as follows:
The compounds were serially titrated by the Hamilton STARPlus CORE in a 96-well plate (Greiner, #651201) using a 1:3 ten-point dose response format. […] 148 uL of prepared membrane was then manually added to each well of a 96-well deep-well polypropylene plate (Fisher Scientific, #12-566-121). Following membrane addition, 2 uL of either titrated test compound, DMSO control (Sigma #276855), or cold cGAMP control was added to the appropriate wells using a BIOMEK FX. Compound and membrane then preincubated for 60 min at RT to allow compound binding to equilibrate. Following equilibration, 8 nM of [^3H] c-GAMP ligand was prepared by diluting into assay buffer, and 50 uL of this working stock was then manually added to each well of the assay plate. Plates were then incubated at RT for 60 min, and the contents of each assay plate were then filtered through a 96-well GF/B filter plate (PerkinElmer, #6005250) using a TOMTEC MACH III Cell Harvester equipped with 20 mM HEPES buffer (Fisher Scientific, #BP299500). The filter plates were then dried at 55° C. for 30 min using a pressurized oven before 30 uL of ULTIMA GOLD F scintillate was added to each well. Tritium levels for each reaction well were then measured using a PerkinElmer TopCount plate reader.
After normalization to controls, the percent activity for each compound concentration was calculated by measuring the amount of remaining radioactivity. The plot of percent activity versus the log of compound concentration was fit with a 4-parameter dose response equation to calculate EC50 values.

[1] = test system: IFN-β secretion from THP1 cells; assay: IFN-β secretion in THP1 cell culture (5 h); assay type: cell-based, human; conditions: for activation at 30 µM: Homo sapiens, THP1 cells, 5 h incubation, compound at 30 μM, 30 uM cGAMP = 100%, read-out: % Effect at 30 μM relative to 2′3′-cGAMP
Experimental: The ability of compounds to stimulate the secretion of interferon-beta from THP1 cells was measured using a human IFN-β AlphaLISA kit (Perkin Elmer, Cat. No. AL265F). The basic protocol is as follows:
The cell viability and count was ascertained using a Beckman Coulter V-Cell XR cell counter. The cell suspension was centrifuged at 200×g for 5 min at RT. Cells were resuspended to a density of 0.8×10^6/mL in 37° C. assay medium. Subsequent liquid transfers were performed using either a Matrix electronic multichannel pipette or an Agilent Bravo Automated Liquid Handling Platform.
The assay was started by dispensing 40 μL of the previously prepared cell suspension into the wells of the plate containing compounds. After 5 h incubation at 37° C., 5% CO2 in a humidified atmosphere, the plate of cells and compounds was centrifuged at 200×g for 5 min at RT. […] To these supernatant-containing wells was added 10 μL of 5× Anti-Analyte Acceptor beads (50 μg/mL of AlphaLISA HiBlock Buffer) and incubated for 30 min at RT while shaking on an orbital plate shaker. To each well was added 10 μL of 5× Biotinylated Antibody Anti-analyte (5 nM in AlphaLISA HiBlock Buffer) and incubated on an orbital plate shaker for 60 min at RT or overnight at 4° C. To each well was added 25 μL of 2× SA-Donor beads (80 μg/mL in AlphaLISA HiBlock Buffer) and incubated for 30-45 min at RT in the dark while shaking on an orbital plate shaker. The plate was then read on a Perkin Elmer Envision (λex680 nm, λem=570 nm). The percent effect of the AlphaLISA signal at each compound concentration was calculated based on 30 uM cGAMP positive controls and 0.3% DMSO negative controls. The plot of percent effect versus the log of compound concentration was fit with a 4-parameter concentration response equation to calculate EC50 values.
Compounds of the disclosure were evaluated for IFN-β secretion in THP1 cell culture as described above.

Row | Structure (SMILES) | EC50 (full-length HAQ STING) [nM] | activation at 30 µM ([1]; THP-1, 5 h) [%] | activation at 30 µM ([1]; THP-1) [%] | % Effect at 30 μM relative to 2′3′-cGAMP [1] [%]
1 | Nc1ncnc2c1ncn2[C@@H]1S[C@@H]2COP(=O)(S)OC3[C@H](n4cnc5c(=O)n6cc[nH]c6nc54)O[C@H](COP(=O)(S)OC2C1O)[C@H]3F (stereo in doubt) [Example 17, 3-[(5R,7R,8R,12aR,14R,15S,15aR,16R)-14-(6-amino-9H-purin-9-yl)-16-fluoro-15-hydroxy-2,10-dioxido-2,10-disulfanyloctahydro-12H-5,8-methanothieno[3,2-l][1,3,6,9,11,2,10]pentaoxadiphosphacyclotetradecin-7-yl]-3,5-dihydro-9H-imidazo[1,2-a]purin-9-one] | 3 | 122 |  | 
2 | Nc1ncnc2c1ncn2[C@@H]1O[C@@]23CO[C@@H]1[C@@H]2OP(=O)(S)OC[C@H]1O[C@@H](n2ccc(=O)n4ccnc24)[C@H](OP(=O)(S)OC3)[C@@H]1O (stereo partly drawn) [Example 6, 8-[(5R,7R,8R,12aR,14R,15R,15aS,18R)-14-(6-amino-9H-purin-9-yl)-18-hydroxy-2,10-dioxido-2,10-disulfanylhexahydro-14H-15,12a-(epoxymethano)-5,8-methanofuro[3,2-l] [1,3,6,9,11,2,10]pentaoxadiphosphacyclotetradecin-7(12H)-yl]imidazo[1,2-a]pyrimidin-5(8H)-one] | 28 | 145 |  | 
3 | Nc1ncnn2c([C@H]3C[C@@H]4O[P@@](=O)(S)OC[C@H]5O[C@@H](n6ccc(=O)n7ccnc67)[C@H](O[P@](=O)(S)OC[C@H]4O3)[C@@H]5O)cnc12 [Example 7, 8-[(2S,5R,7R,8R,10R,12aR,14R,15aS,16R)-14-(4-aminoimidazo[2,1-f][1,2,4]triazin-7-yl)-16-hydroxy-2,10-dioxido-2,10-disulfanyl-octahydro-12H-5,8-methanofuro[3,2-l][1,3,6,9,11,2,10]pentaoxadiphosphacyclotetradecin-7-yl]imidazo [1,2-a]pyrimidin-5(8H)-one] | 2 | 140 |  | 
4 | Nc1ccnc2c1nnn2[C@H]1C[C@@H]2OP(=O)(S)OC[C@H]3O[C@@H](n4ccc(=O)n5ccnc45)[C@H](OP(=O)(S)OC[C@H]2O1)[C@@H]3O (stereo partly drawn) [Example 18, 8-[(5R,7R,8R,12aR,14R,15aS,16R)-14-(7-amino-3H-[1,2,3]triazolo[4,5-b]pyridin-3-yl)-16-hydroxy-2,10-dioxido-2,10-disulfanyloctahydro-12H-5,8-methanofuro[3,2-l][1,3,6,9,11,2,10]pentaoxadiphosphacyclotetradecin-7-yl]imidazo[1,2-a]pyrimidin-5(8H)-one] | 126 | 124 |  | 
5 | Nc1ncnc2c1nnn2[C@@H]1O[C@@H]2COP(=O)(S)O[C@@H]3C[C@@H](COP(=O)(S)O[C@H]2[C@@H]1F)O[C@H]3n1cnc2c(=O)n3cc[nH]c3nc21 (stereo partly drawn) [Example 28, 3-[(5S,7R,8R,12aR,14R,15S,15aR)-14-(7-amino-3H-[1,2,3]triazolo[4,5-d]pyrimidin-3-yl)-15-fluoro-2,10-dioxido-2,10-disulfanyloctahydro-12H-5,8-methanofuro[3,2-l] [1,3,6,9,11,2,10]pentaoxadiphosphacyclotetradecin-7-yl]-3,5-dihydro-9H-imidazo[1,2-a]purin-9-one] | 41 | 143 |  | 
6 | O=c1ccn([C@@H]2O[C@@H]3COP(=O)(S)O[C@@H]4[C@H](O)[C@@H](COP(=O)(S)O[C@H]3[C@H]2O)O[C@H]4n2ccc(=O)n3ccnc23)c2nccn12 (stereo partly drawn) [Example 30, 8,8′-[(5R,7R,8R,12aR,14R,15R,15aS,16R)-15,16-dihydroxy-2,10-dioxido-2,10-disulfanyloctahydro-12H-5,8-methanofuro[3,2-l][1,3,6,9,11,2,10]pentaoxadiphosphacyclo-tetradecine-7,14-diyl]bisimidazo[1,2-a]pyrimidin-5(8H)-one] | 37 |  | 127 | 
7 | Nc1nc2c(ncn2[C@@H]2O[C@@H]3COP(=O)(S)O[C@H]4[C@@H](O)[C@H](n5ccc(=O)n6ccnc56)O[C@@H]4COP(=O)(S)O[C@@H]2[C@@H]3F)c(=O)[nH]1 (stereo partly drawn) [Example 31, 2-amino-9-[(5R,7R,8S,12aR,14R,15R,15aS,16R)-16-fluoro-15-hydroxy-2,10-dioxido-14-(5-oxoimidazo [1,2-a]pyrimidin-8(5H)-yl)-2,10-disulfanyloctahydro-12H-5,8-methanofuro[3,2-l][1,3,6,9,11,2,10]pentaoxadiphosphacyclotetradecin-7-yl]-1,9-dihydro-6H-purin-6-one] | 16 | 28 |  | 
8 | Nc1ccnc2c1ccn2[C@H]1C[C@@H]2OP(=O)(S)OC[C@H]3O[C@@H](n4ccc(=O)n5ccnc45)[C@H](OP(=O)(S)OC[C@H]2O1)[C@@H]3O (stereo partly drawn) [Example 34, 8-[(5R,7R,8R,12aR,14R,15aS,16R)-14-(4-amino-1H-pyrrolo[2,3-b]pyridin-1-yl)-16-hydroxy-2,10-dioxido-2,10-disulfanyloctahydro-12H-5,8-methanofuro[3,2-l][1,3,6,9,11,2,10]pentaoxadiphosphacyclotetradecin-7-yl]imidazo[1,2-a]pyrimidin-5(8H)-one] | 1120 | 157 |  | 
9 | Nc1nc2c(ncn2[C@@H]2S[C@@H]3COP(=O)(S)O[C@H]4[C@H](F)[C@H](n5ccc6c(=O)[nH]cnc65)O[C@@H]4COP(=O)(S)O[C@@H]2C3)c(=O)[nH]1 (stereo partly drawn) [Example 44, 2-amino-9-[(5S,7R,8R,12aR,14R,15S,15aR)-15-fluoro-2,10-dioxido-14-(4-oxo-3,4-dihydro-7H-pyrrolo[2,3-d]pyrimidin-7-yl)-2,10-disulfanyl-octahydro-12H-5,8-methanofuro[3,2-l] [1,3,9,11,6,2,10]tetraoxathiadiphosphacyclotetradecin-7-yl]-1,9-dihydro-6H-purin-6-one] | 1 | 164 |  | 
10 | Nc1cc2c(ncn2[C@@H]2O[C@@H]3COP(=O)(S)O[C@H]4[C@H](F)[C@H](n5ccc6c(=O)[nH]cnc65)O[C@@H]4COP(=O)(S)O[C@@H]2[C@@H]3F)c(=O)[nH]1 (stereo partly drawn) [Example 51, 6-amino-1-[(5R,7R,8S,12aR,14R,15S,15aR,16R)-15,16-difluoro-2,10-dioxido-14-(4-oxo-3,4-dihydro-7H-pyrrolo[2,3-d]pyrimidin-7-yl)-2,10-disulfanyl-octahydro-12H-5,8-methanofuro[3,2-l] [1,3,6,9,11,2,10]pentaoxadiphosphacyclotetradecin-7-yl]-1,5-dihydro-4H-imidazo[4,5-c]pyridin-4-one] | 13 | 113 |  | 
11 | Nc1nc2c(ncn2[C@@H]2O[C@@H]3COP(=O)(O)O[C@H]4C[C@H](n5ccc6c(=O)[nH]cnc65)O[C@@H]4COP(=O)(S)O[C@@H]2C3)c(=O)[nH]1 (stereo partly drawn) [Example 54, 2-amino-9-[(5S,7R,8R,12aR,14R,15aS)-2-hydroxy-2,10-dioxido-14-(4-oxo-3,4-dihydro-7H-pyrrolo[2,3-d]pyrimidin-7-yl)-10-sulfanyloctahydro-12H-5,8-methanofuro[3,2-l][1,3,6,9,11,2,10]pentaoxadiphosphacyclotetradecin-7-yl]-1,9-dihydro-6H-purin-6-one] | 12 |  |  | 68
